Assay results as given in patent publication US4877746A, “Methods of carrying out assays for lipoproteins and apolipoproteins” (Pharmacia AB, priority 1985, dated 1989).
Where a name gives a salt, the structure may show the parent alone.

What was measured:
Lp(a) = assay: Sandwich immunoassay (method 1.2) of serum after prior art delipidating pretreatment, tracer uptake; type: binding
Procedure: (§1) 50 μl from the reaction mixture of step 1 was diluted according to the dilution scheme 1/18-1/54-1/162-[…]-1/1458-1/4374. Each dilution was mixed with 50 μl of mouse antiapo(a) ^125 I and incubated for 1 hour at RT, whereupon 50 μl of goat antiapo(a) was added. The reaction mixture was kept standing for 0.5 hours at RT. This was followed by precipitation of the resultant complex with the aid of solid-phase-bound anti-antibodies (2 ml Decanting Suspension, 0.5 hr and RT). The suspension was centrifuged, the supernatant then being removed by decantation and discarded.
Equal volumes of serum and pretreating solution were mixed and incubated for 2-16 hours, whereupon the sample was diluted 20-fold with phosphate buffer I. The testing method according to 1.2 was then applied to the reaction solutions. […]
The results are presented as % binding of total amount of tracer added

apo(a) = assay: Immunoassay (sandwich, mouse antiapo(a) 125I) of apo(a) in serum after pretreatment at acidic and alkaline pH; type: binding; conditions: for apo(a) concentration read off after acidic pretreatment: acidic pH, 20 h; for apo(a) concentration read off after acidic pretreatment / apo(a) concentration read off after alkaline pretreatment: 1:1 with serum, RT; for apo(a) concentration read off after alkaline pretreatment: alkaline pH
Procedure: (a) Alkaline pH. Equal volumes of serum and 0.13 M NaOH were mixed and incubated at room temperature (=RT) for 2 hours, whereupon phosphate buffer I was added up to an 18-fold dilution of the sample.
(b) Acidic pH. Equal volumes of serum and 0.2 M HCl were mixed and incubated at RT for 20 hours, whereupon phosphate buffer I was added up to an 18-fold dilution of the sample.
(c) Alkaline buffer system. Equal volumes of serum and 0.2 M trisodium phosphate were mixed and incubated at RT for 1 hour, whereupon phosphate buffer I was added up to an 18-fold dilution of the sample.
as §1
In separation experiments goat antiapo(a) was replaced with sheep antiapo(a) and monoclonal antiapo(a). These antibodies were tested in soluble as well as in solid-phase-bound form. Decanting suspension was excluded when solid-phase-bound antiapo(a)s were used.

[1] = dilution 1/20, first concentration: SDS 0.5%, urea 4 M, guanidine HCl 2 M, Triton 2%, Renex 1%, lipase 500 U/l
[2] = dilution 1/20, second concentration: SDS 2.5%, urea 6 M, guanidine HCl 6 M, Triton 10%, Renex 5%, lipase 100 U/l
[3] = dilution 1/60, first concentration: SDS 0.5%, urea 4 M, guanidine HCl 2 M, Triton 2%, Renex 1%, lipase 500 U/l
[4] = dilution 1/60, second concentration: SDS 2.5%, urea 6 M, guanidine HCl 6 M, Triton 10%, Renex 5%, lipase 100 U/l
[5] = dilution 1/180, first concentration: SDS 0.5%, urea 4 M, guanidine HCl 2 M, Triton 2%, Renex 1%, lipase 500 U/l
[6] = dilution 1/180, second concentration: SDS 2.5%, urea 6 M, guanidine HCl 6 M, Triton 10%, Renex 5%, lipase 100 U/l
[7] = dilution 1/540, first concentration: SDS 0.5%, urea 4 M, guanidine HCl 2 M, Triton 2%, Renex 1%, lipase 500 U/l
[8] = dilution 1/540, second concentration: SDS 2.5%, urea 6 M, guanidine HCl 6 M, Triton 10%, Renex 5%, lipase 100 U/l

Row | SMILES | % binding of total amount of tracer added (uptake) (Lp(a); [1]) [%] | % binding of total amount of tracer added (uptake) (Lp(a); [2]) [%] | % binding of total amount of tracer added (uptake) (Lp(a); [3]) [%] | % binding of total amount of tracer added (uptake) (Lp(a); [4]) [%] | % binding of total amount of tracer added (uptake) (Lp(a); [5]) [%] | % binding of total amount of tracer added (uptake) (Lp(a); [6]) [%] | % binding of total amount of tracer added (uptake) (Lp(a); [7]) [%] | % binding of total amount of tracer added (uptake) (Lp(a); [8]) [%] | apo(a) concentration read off after acidic pretreatment (apo(a); 0.2 M pretreating solution) [U/l] | other results
1 | N=C(N)N [GUANIDINE HCl, Guanidine - HCl] | 10.0 | 10.7 | 5.6 | 6.3 | 3.6 | 4.1 | 3.1 | 3.3 | – | –
2 | O=P(O)(O)O [H3 PO4] | – | – | – | – | – | – | – | – | 28.4 | –
3 | Cl [HCl, hydrochloric acid] | – | – | – | – | – | – | – | – | 41.0 | –
4 | O=P([O-])([O-])[O-].[Na+].[Na+].[Na+] [Na3 PO4, trisodium phosphate] | – | – | – | – | – | – | – | – | – | apo(a) concentration read off after alkaline pretreatment (apo(a); 0.2 M pretreating solution, 1 h): 354 U/l
5 | [Na+].[OH-] [NaOH, sodium hydroxide] | – | – | – | – | – | – | – | – | – | uptake on increased treatment time (apo(a); 0.13 M NaOH, longer treatment time, given dilution): the uptake was lowered; apo(a) concentration read off after alkaline pretreatment (apo(a); 0.13 M pretreating solution, 2 h): 333 U/l; effectiveness of pretreatment (apo(a); sodium hydroxide solution versus hydrochloric acid solution): far more effective than a hydrochloric acid solution
6 | CCCCCCCCCCCCOS(=O)(=O)[O-].[Na+] [SDS, sodium dodecyl sulfate] | 10.1 | 18.8 | 5.3 | 13.3 | 3.6 | 7.0 | 3.0 | 4.5 | – | –
7 | NC(N)=O [UREA, Urea] | 10.0 | 9.6 | 5.4 | 5.3 | 3.6 | 3.8 | 3.2 | 3.1 | – | –
8 | O=C(O)CC(O)(CC(=O)O)C(=O)O [citric acid] | – | – | – | – | – | – | – | – | 25.2 | –
